Reference: article PMC8156206, “Novel N,N′-Disubstituted Selenoureas as Potential Antioxidant and Cytotoxic Agents” (Antioxidants, 2021)

Assays:
[1] = tested on: MCF-7 cells (breast adenocarcinoma); assay: MTT cell viability assay, MCF-7; assay type: cell-based, human
Method in brief: (§1)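 Cells at 1 × 10^4/well grown 24 h, then treated 48 h with selenourea at 10 and 50 µM (selected compounds 0.1–100 µM), DMSO as negative control. MTT added 150 min before end, formazan read at 570 nm; IC50 by nonlinear fit, ≥3 independent experiments in triplicate.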

[2] = tested on: BEAS-2B cells (lung non-malignant derived cell line); assay: MTT cell viability assay, BEAS-2B; assay type: cell-based; conditions: Homo sapiens, 48 h, mean ± SD
Method: (§2) Cell lines were purchased from the American Type Culture Collection (ATCC). MCF-7, HTB-54, BEAS-2B and 184B5 cell lines were grown in RPMI 1640 medium (Gibco) supplemented with 10% fetal bovine serum (FBS; Gibco), 100 units/mL penicillin, and […] streptomycin (Gibco). HT-29 and HCT-116 cell lines was cultured in McCoy’s 5A (Gibco), 10% FBS, 100 units/mL penicillin, and 100 μg/mL streptomycin. Cells were maintained at 37 °C and 5% CO2. Culture medium was replaced every three days.
(§3) A cell viability assay of each compound was carried out using an MTT assay. Each selenourea was dissolved in dimethyl sulfoxide (DMSO) at a concentration of 0.01 M. Serial dilutions were prepared with non-supplemented culture medium. Cytotoxic activity of each selenourea was determined at two different concentrations (10 and 50 µM) in MCF-7, HTB-54, and HT-29 cells. In addition, selected compounds were tested at seven different concentrations (0.1, 1, 5, 10, 25, 50, 100 µM) on MCF-7, HT-29, HCT-116, HTB-54, 184B5, and BEAS-2B cells. The number of passages before defrosting the cells was 3, and they were kept under culture up to a maximum of 15.
(§4) Briefly, 1 × 10^4 cells/well were grown in 96-well plates for 24 h. Then, these cells were incubated with either DMSO (negative control) at 5 µM or a different concentration of each tested selenourea for 48 h. A volume of 20 µL of MTT was added 150 min before the termination point to measure cellular viability. After this time, culture medium was removed. The resultant formazan crystals were dissolved in 50 µL of DMSO, and absorbance was measured at 570 nm. Results are expressed as IC50, the half maximal inhibitory concentration. This value was calculated using GraphPad Prism 7 software by nonlinear curve fitting. Furthermore, the selectivity index (SI) was calculated as the ratio of the IC50 values determined for the non-malignant and the tumoral cells (IC50 (184B5)/IC50 (MCF-7) or (IC50 (BEAS-2B)/IC50 (HTB-54). Data were obtained from at least three independent experiments performed in triplicates.

HT-29 cells [3] = assay: Annexin V-APC/7AAD cell death assay; assay type: cell-based, human
Method: (§5) 6 × 10^5 cells/well were grown in 6-well plates for 24 h. Cultures were treated with the corresponding amount of the selected compounds, DMSO (control), or 10 μM camptothecin (positive control). Propidium iodide (PI) was used as DNA stain dye to determine cell cycle distribution. Cells were stored at −20 °C with 70% ethanol for at least 24 h. Then, ethanol was removed, cells were washed with PBS, and stained for 30 min with 500 µL of a solution containing 0.001% triton, 0.2% w/v RNase, and 0.02% PI.
For the determination of apoptosis, APC Annexin V Apoptosis Detection Kit with 7-AAD from Biolegend® was employed following the staining procedure described by the manufacturer. Samples were analyzed by flow cytometry using a BD Accuri™ C6 Plus Flow Cytometer (Beckton, Dickinson and company, Franklin Lakes (NJ), USA).
Mounting evidence of the anticancer potential of selenium compounds can be found in the literature. […] Remarkably, these mechanisms vary depending on the selenium compound and on cell phenotype. […] Assays were conducted at different 6c concentrations ranging from 0.1 to 10 µM. Camptothecin (10 µM) was used as positive control.

[4] = tested on: 184B5 cells (breast non-malignant derived cell line); assay: MTT cell viability assay, 184B5; assay type: cell-based; conditions: Homo sapiens, 184B5; 48 h, MTT, mean ± SD; read-out: IC50 184B5 (breast, non-malignant)
Method: as §2, §3, §4

[5] = tested on: HT-29 cells (colon carcinoma); assay: MTT cell viability assay, HT-29; assay type: cell-based; conditions: Homo sapiens, 48 h, MTT
Method in brief: as §1

HT-29 cells [6] = assay: Cell cycle progression, propidium iodide flow cytometry; assay type: cell-based, human; conditions: HT-29, 48 h, 0.1, 1, 5 and 10 µM
Method: as §5
To gain further knowledge about the mechanism of action of 6c, we investigated the effect of this compound on cell cycle progression using flow cytometry analysis, with propidium iodide as a DNA staining agent. We analyzed the effect at 48 h treatment with four different concentrations (0.1, 1, 5, and 10 µM) of compound 6c on HT-29 cells. Camptothecin (10 μM) was used as a positive control. […] The cell cycle modulation of 6c is very similar to camptothecin, the reference compound used in the study.

[7] = HT-29, 6c 10 µM, 24 h, 30 min preincubation

Work on COc1ccc(NC(=[Se])NC23CC4CC(CC(C4)C2)C3)cc1 [Compound 6c, N´-adamantyl-N-(4-methoxyphenyl)selenourea] yielded an IC50 ([1]; Homo sapiens, MCF7, 48 h, MTT, mean ± SD, read-out: IC50 MCF-7 (breast)) of 4.94 ± 1.99 µM, a viability at 10 µM ([1]; Homo sapiens, MCF7, MCF-7, 10 µM, 48 h, MTT, read-out: cell viability, percentage of live cells) of 37.9% and a viability at 50 µM ([1]; Homo sapiens, MCF7, MCF-7, 50 µM, 48 h, MTT, read-out: cell viability, percentage of live cells) of 9.2%. For the same compound, the “SI (selectivity index) breast” value ([1]; IC50 (184B5)/IC50 (MCF-7)) was 1.46, the IC50 [2] was 4.73 ± 0.79 µM and the “cell death after pre-incubation with PI3K inhibitor wortmannin” value (HT-29 cells [3]; [7]) was “prevented induction cell death”. For the same compound, the “number of dead cells after pre-incubation with pancaspase inhibitor z-VAD-fmk” value (HT-29 cells [3]; [7]) was “no significant differences in the number of dead cells”, the “number of dead cells (7AAD positive cells)” value (HT-29 cells [3]; HT-29, 48 h, 5 and 10 µM) was “increased the number of dead cells” and the IC50 [4] was 7.23 ± 2.28 µM. The IC50 ([5]; HT-29, mean ± SD, read-out: IC50 HT-29 (colon)) was 5.6 ± 1.24 µM, the viability at 10 µM ([5]; HT-29, 10 µM, read-out: cell viability, percentage of live cells) was 34.6% and the viability at 50 µM ([5]; HT-29, 50 µM, read-out: cell viability, percentage of live cells) was 25.7%. For the same compound, the cell cycle modulation (HT-29 cells [6]) was “cell cycle arrest at the S phase in a concentration-dependent manner”.
